Test results reported in patent US20120088667A1, “SAFENING AGENT” (priority 2009, published 2012).

Columns and labels:
Soybean = test: Root nodulation and safening, soybean, compost of low pH (Example 7.1)
Description: (§1) The safener/safening system and the fertiliser were applied to the crops either simultaneously or sequentially.
(§2) Co=100% Cobalt Sulphate (20 g per litre and per hectare). FF1=20 g per litre Cobalt Sulphate (as per Co above) plus “Miracle-Gro” at xl recommended rate (applied at 15 g per 2.5 sq metres). Miracle-Gro contains: 24% N, 4% P, 13% K, plus 0.02% B, 0.03% Cu, 0.19% Fe, 0.05% Mn, 0.001% Mo and 0.03% Zn. FF2=20 g per litre Cobalt Sulphate plus Miracle-Gro at ×2 recommended rate. SAF: at least one from class (f) each at <3 g/l, plus at least one from class (c).
Scored/Counted+28 Days After Spraying. Sown in Compost of low pH (5.0-5.5) on 1 May 2008. Spray Date (VC)=4 June, V1 Date=20 June. Scored/Measured on 17 July. […] Seed density approx 110 kg/ha. Soybean treated with standard inoculant at sowing.

Glycine max (Soybean) = test: Root nodulation and safening, soybean, compost of normal pH (Example 7.2); details: compost of normal pH (6.5)
Description: as §1, §2
Dates as per Example 7.1 above, but sown in compost of normal pH (6.5). Each treatment represents the mean values for 12 plants, within four replicates. Sowing density 110 kg/ha. Standard inoculant applied at sowing.

NAVY BEAN cv Mogex [1] = test: Root nodulation and safening, navy bean, compost of low pH (Example 7.3); details: compost of low pH (5.0-5.5)
Description: as §1, §2
NAVY BEAN cv Mogex. Scored/Counted+28 Days after Spraying. Sown in Compost of low pH (5.0-5.5) on 29 Apr. 2008. Spray Date (VC)=27 May, V1 Date=16 June. Scored/Measured on 11 July. Each treatment represents the mean value of 12 plants, within four replicates. No inoculum applied.

NAVY BEAN cv Mogex [2] = test: Root nodulation and safening, navy bean, compost of normal pH (Example 7.4); details: compost of normal pH (6.5)
Description: as §1, §2
NAVY BEAN cv Mogex. Scored/Counted+28 Days after Spraying. Dates as per Example 7.3 Above, but sown in compost of normal pH (6.5). Each treatment represents the mean value from 12 plants, within four replicates. No inoculum applied.

PEA cv Ragtime [3] = test: Root nodulation, rooting and safening, pea, compost of low pH (Examples 7.5 and 7.7)
Description: as §1, §2
PEA—TRIAL 5—cv Ragtime. Scored/Counted+28 Days after Spraying. Sown in Compost of Low pH (5.0-5.5) on 28 Apr. 2008. Spray Date (VC)=26 May, V1 Date=14 June. Scored/Measured on 9 July. […] No inoculum applied.
Sowing details etc as per Example 7.5.

PEA cv Ragtime [4] = test: Root nodulation and safening, pea, compost of normal pH (Example 7.6); details: compost of normal pH (6.5)
Description: as §1, §2
PEA—TRIAL 7.6—cv Ragtime. Dates as per Example 7.5 above, but sown in compost of normal pH (6.5). […] No inoculum was applied.

oilseed rape = test: Safening oilseed rape using a variety of safening compounds of classes (a) to (f) with herbicides; format: in vivo; details: herbicide Bifenox (with insecticide cypermethrin)
Description: Safening compounds were selected from the list of compounds below. The compounds used are highlighted in bold. • (a) Glucose (GL), hydrolysed starch, sucrose (S), fructose (FR), glycerol (G), glyceraldehydes, erythrose, ribulose, xylulose or arabinose or an ester or glycoside or metabolic equivalent of such a carbohydrate; • (b) an organic acid of the Krebs Tricarboxylic Acid Cycle or a metabolic precursor thereof (including citric (C), succinic (SU), malic, pyruvic, acetic and fumaric acids); • (c) a vitamin or coenzyme, eg thiamine (T), riboflavin (R), pyridoxine (P), pyridoxamine, pyridoxal, nicotinamide (N), folic acid (F), ascorbic acid (AA), Biotin (B) and vitamin B12 (B12) or a precursor thereof including nicotinic acid • (d) a purine or pyrimidine nucleoside, nucleotide or a metabolic precursor thereof, eg adenine, adenosine, thymine, thymidine, cytosine, guanine, guanosine, hypoxanthine, uracil, uridine or inosine, to act as structural precursors for nucleic acid synthesis. • (e) a naturally occurring fat or oil including olive, soya, coconut and corn (Oil) oils; • (f) an amino acid of a type that occurs naturally in plant proteins, eg glycine (GLY), alanine (AL), valine, leucine (LE), isoleucine, serine, threonine (THR), cysteine (CY), methionine (ME), aspartic acid, glutamic acid, glutamine (GLU), asparagine (AS), lysine (LY), hydroxylysine, arginine, histidine, phenylalanine, tyrosine, tryptophan, proline, or hydroxyproline. Statistical Layout: Randomised Complete Block trial, under glasshouse conditions, United Kingdom.

Winter wheat cv Alchemy = test: Safening of herbicides from addition of auxin/auxin precursor and acetaminophen, winter wheat; details: auxins/precursors 10^-2 Molar, AC 3 g per hectare, 0-9 scale, 0=dead plant
[5] = Soybean, compost of low pH (5.0-5.5), V1, score 0-9
[6] = V1, +28 days after spraying, no inoculum
[7] = compost of low pH (5.0-5.5), V1, score 0-9
[8] = low pH compost, application at V1, 0-9 scale

O=S(=O)([O-])[O-].[Co+2] [cobalt, Cobalt Sulphate]
Nodules Per Plant (V1) (Soybean; Soybean, compost of low pH (5.0-5.5), V1, +28 days after spraying, mean of 12 plants): 27.3
Nodulation Score (0-9) (V1) (Soybean; [5]): 5.2
Phyto-Toxicity Score (0-9) (V1) (Soybean; [5]): 7.8
Vigour Score (0-9) (V1) (Soybean; [5]): 6.0
Nodules Per Plant (VC) (Soybean; Soybean, compost of low pH (5.0-5.5), VC, +28 days after spraying): 28.8
Nod Score (0-9) (VC) (Soybean; Soybean, compost of low pH (5.0-5.5), VC, score 0-9): 5.4
nodulation (Soybean; nitrogen fixing crops): increases nodulation
Nodules Per Plant (V1) (Glycine max (Soybean); V1, mean of 12 plants): 29.8
Nodulation Score (0-9) (V1) (Glycine max (Soybean); V1, score 0-9): 5.5
Phyto-Toxicity Score (0-9) (V1) (Glycine max (Soybean); V1, score 0-9): 8.0
Vigour Score (0-9) (V1) (Glycine max (Soybean); V1, score 0-9): 6.5
Nodules Per Plant (VC) (Glycine max (Soybean); VC): 28.0
Nod Score (0-9) (VC) (Glycine max (Soybean); VC, score 0-9): 5.3
Nodules Per Plant (V1) (NAVY BEAN cv Mogex [1]; [6]): 21.0
Nodulation Score (0-9) (V1) (NAVY BEAN cv Mogex [1]; V1, score 0-9): 3.3
Phyto-Toxicity Score (0-9) (V1) (NAVY BEAN cv Mogex [1]; V1, score 0-9): 5.7
Vigour Score (0-9) (V1) (NAVY BEAN cv Mogex [1]; V1, score 0-9): 5.9
Nodules Per Plant (VC) (NAVY BEAN cv Mogex [1]; VC): 23.8
Nod Score (0-9) (VC) (NAVY BEAN cv Mogex [1]; VC, score 0-9): 3.8
Nodules Per Plant (V1) (NAVY BEAN cv Mogex [2]; [6]): 33.5
Nodulation Score (0-9) (V1) (NAVY BEAN cv Mogex [2]; V1, score 0-9): 5.2
Phyto-Toxicity Score (0-9) (V1) (NAVY BEAN cv Mogex [2]; V1, score 0-9): 7.3
Vigour Score (0-9) (V1) (NAVY BEAN cv Mogex [2]; V1, score 0-9): 7.2
Nodules Per Plant (VC) (NAVY BEAN cv Mogex [2]; VC): 31.8
Nod Score (0-9) (VC) (NAVY BEAN cv Mogex [2]; VC, score 0-9): 5.0
Nodules Per Plant (V1) (PEA cv Ragtime [3]; compost of low pH (5.0-5.5), V1, +28 days after spraying, no inoculum): 16.4
Nodulation Score (0-9) (V1) (PEA cv Ragtime [3]; [7]): 5.0
Phyto-Toxicity Score (0-9) (V1) (PEA cv Ragtime [3]; [7]): 5.1
Vigour Score (0-9) (V1) (PEA cv Ragtime [3]; [7]): 5.8
Nodules Per Plant (VC) (PEA cv Ragtime [3]; compost of low pH (5.0-5.5), VC): 18.1
Nod Score (0-9) (VC) (PEA cv Ragtime [3]; compost of low pH (5.0-5.5), VC, score 0-9): 5.3
Nodules Per Plant (V1) (PEA cv Ragtime [3]; low pH compost, application at V1 (data from Example 7.5)): 16.4
Nodulation Score (0-9) (V1) (PEA cv Ragtime [3]; [8]): 5.0
Phyto-Toxicity Score (0-9) (V1) (PEA cv Ragtime [3]; [8]): 5.1
Rooting Score (0-9) (V1) (PEA cv Ragtime [3]; [8]): 4.2
Nodules Per Plant (V1) (PEA cv Ragtime [4]; V1, no inoculum): 16.9
Nodulation Score (0-9) (V1) (PEA cv Ragtime [4]; V1, score 0-9): 5.1
Phyto-Toxicity Score (0-9) (V1) (PEA cv Ragtime [4]; V1, score 0-9): 6.9
Vigour Score (0-9) (V1) (PEA cv Ragtime [4]; V1, score 0-9): 6.8
Nodules Per Plant (VC) (PEA cv Ragtime [4]; VC): 17.4
Nod Score (0-9) (VC) (PEA cv Ragtime [4]; VC, score 0-9): 5.2

Nc1ccccc1C(=O)O [2. AN (Anthranilic Acid)]
Phytotoxicity (0-9) (0 = Dead) + 14 Days (oilseed rape; score 0-9, 0 = Dead, 14 days): 8.0
Vigour (0-9) (0 = Dead) + 14 days (oilseed rape; score 0-9, 0 = Dead, 14 days): 8.0
Phytotoxicity (0-9) (0 = Dead) + 28 Days (oilseed rape; score 0-9, 0 = Dead, 28 days): 8.0
Vigour (0-9) (0 = Dead) + 28 Days (oilseed rape; score 0-9, 0 = Dead, 28 days): 8.0
Rooting (0-9) (9 = Best Rooting) + 28 Days (oilseed rape; score 0-9, 9 = Best Rooting, 28 days): 8.0

Nc1ccccc1C(=O)O [Anthranilic acid (AN)]
Phytotoxicity (0-9) (0 = Dead) + 14 Days (Winter wheat cv Alchemy; 14 days after spraying): 8.0
Phytotoxicity (0-9) (0 = Dead) + 28 Days (Winter wheat cv Alchemy; 28 days after spraying): 8.0
